Key:
[1] = biological target: T1, Kv1.3 potassium channel (Homo sapiens, UniProt P22001); test: Kv1.3 potassium channel blocker activity, automated whole-cell patch clamp (Patchliner) in CHO-K1 cells stably expressing Kv1.3; format: cell-based; conditions: 30 nM-100 μM
T1 construct: expressed in transfected cells
Summary of the method: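 Whole-cell automated patch clamp in CHO-K1 cells, pH 7.4 external/7.2 internal; 100 ms steps from −90 to +40 mV at 0.1 Hz, 20-pulse trains. Cumulative 30 nM–100 μM on one cell, ≤10 s per concentration; last-pulse current normalized to control, IC50 from Hill fit.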

[2] = biological target: T2, hERG channel (Homo sapiens, UniProt Q12809); test: hERG electrophysiology, automated whole-cell patch clamp (Patchliner) in CHO-K1 cells stably expressing hERG; format: cell-based; conditions: 30 nM-100 μM
T2 construct: expressed in transfected cells
T2 sequence (Q12809 whole entry): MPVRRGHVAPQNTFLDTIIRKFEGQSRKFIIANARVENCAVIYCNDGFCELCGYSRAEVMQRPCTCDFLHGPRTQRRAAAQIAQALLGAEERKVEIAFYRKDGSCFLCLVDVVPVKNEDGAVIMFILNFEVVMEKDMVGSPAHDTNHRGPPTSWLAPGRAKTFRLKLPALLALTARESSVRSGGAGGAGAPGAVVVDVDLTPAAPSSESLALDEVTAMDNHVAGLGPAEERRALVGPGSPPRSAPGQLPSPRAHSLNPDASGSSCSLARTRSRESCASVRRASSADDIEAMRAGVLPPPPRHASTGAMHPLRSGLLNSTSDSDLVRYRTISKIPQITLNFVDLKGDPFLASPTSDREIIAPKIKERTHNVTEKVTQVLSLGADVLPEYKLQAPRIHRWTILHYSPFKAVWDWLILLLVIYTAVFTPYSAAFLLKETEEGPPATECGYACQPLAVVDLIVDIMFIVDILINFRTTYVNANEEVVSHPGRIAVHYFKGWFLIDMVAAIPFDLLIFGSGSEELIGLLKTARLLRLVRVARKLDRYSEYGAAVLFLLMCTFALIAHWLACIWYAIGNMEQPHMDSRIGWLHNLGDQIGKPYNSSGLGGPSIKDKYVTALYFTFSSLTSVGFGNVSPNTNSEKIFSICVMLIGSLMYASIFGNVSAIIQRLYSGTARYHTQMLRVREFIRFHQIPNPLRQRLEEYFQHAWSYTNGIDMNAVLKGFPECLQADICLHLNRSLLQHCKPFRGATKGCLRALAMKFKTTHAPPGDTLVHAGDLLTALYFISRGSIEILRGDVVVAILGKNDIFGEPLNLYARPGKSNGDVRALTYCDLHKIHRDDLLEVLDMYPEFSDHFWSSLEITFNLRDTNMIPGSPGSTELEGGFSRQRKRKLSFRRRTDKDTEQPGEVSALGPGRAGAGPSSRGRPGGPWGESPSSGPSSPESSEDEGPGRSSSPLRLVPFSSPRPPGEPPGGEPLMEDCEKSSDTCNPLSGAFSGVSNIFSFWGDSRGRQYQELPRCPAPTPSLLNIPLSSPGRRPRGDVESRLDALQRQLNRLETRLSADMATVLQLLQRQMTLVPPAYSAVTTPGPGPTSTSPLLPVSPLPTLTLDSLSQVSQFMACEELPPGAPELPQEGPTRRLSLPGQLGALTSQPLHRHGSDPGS
Protocol: This assay is used to evaluate the disclosed compounds' inhibition activities against the hERG channel.
CHO-K1 cells stably expressing hERG were grown in Ham's F-12 Medium with glutamine containing 10% heat-inactivated FBS, 1% penicillin/streptomycin, hygromycin (100 μg/ml) and G418 (100 μg/ml). Cells were grown in culture flasks at 37° C. in a 5% CO2-humidified incubator.
The cells were bathed in an extracellular solution containing 140 mM NaCl, 4 mM KCl, 2 mM CaCl2), 1 mM MgCl2, 5 mM Glucose, 10 mM HEPES; pH adjusted to 7.4 with NaOH; 295-305 mOsm. The internal solution contained 50 mM KCl, 10 mM NaCl, 60 mM KF, 20 mM EGTA, 10 mM HEPES; pH adjusted to 7.2 with KOH; 285 mOsm. All compounds were dissolved in DMSO at 30 mM. Compound stock solutions were freshly diluted with external solution to concentrations of 30 nM, 100 nM, 300 nM, 1 μM, 3 μM, 10 μM, 30 μM and 100 μM. The highest content of DMSO (0.3%) was present in 100 μM.
The voltage protocol (see Table B) was designed to simulate voltage changes during a cardiac action potential with a 300 ms depolarization to +20 mV (analogous to the plateau phase of the cardiac action potential), a repolarization for 300 ms to −50 mV (inducing a tail current) and a final step to the holding potential of −80 mV. The pulse frequency was 0.3 Hz. Control (compound-free) and compound pulse trains for each compound concentration applied contained 70 pulses.
Whole-cell current recordings and compound application were enabled by means of an automated patch clamp platform Patchliner (Nanion). EPC 10 patch clamp amplifier (HEKA) along with Patchmaster software (HEKA Elektronik Dr. Schulze GmbH) was used for data acquisition. Data were sampled at 10 kHz without filtering. Increasing compound concentrations were applied consecutively to the same cell without washouts in between.
AUC and PEAK values were obtained with Patchmaster (HEKA Elektronik Dr. Schulze GmbH). To determine IC50 the last single pulse in the pulse train corresponding to a given compound concentration was used. Obtained AUC and PEAK values in the presence of compound were normalized to control values in the absence of compound. Using Origin (OridinLab), IC50 was derived from data fit to Hill equation: Icompound/Icontrol=(100−A)/(1+([compound]/IC50)nH)+A, where IC50 is the concentration at which current inhibition is half-maximal, [compound] is the applied compound concentration, A is the fraction of current that is not blocked and nH is the Hill coefficient.

T1 sequence (P22001 whole entry): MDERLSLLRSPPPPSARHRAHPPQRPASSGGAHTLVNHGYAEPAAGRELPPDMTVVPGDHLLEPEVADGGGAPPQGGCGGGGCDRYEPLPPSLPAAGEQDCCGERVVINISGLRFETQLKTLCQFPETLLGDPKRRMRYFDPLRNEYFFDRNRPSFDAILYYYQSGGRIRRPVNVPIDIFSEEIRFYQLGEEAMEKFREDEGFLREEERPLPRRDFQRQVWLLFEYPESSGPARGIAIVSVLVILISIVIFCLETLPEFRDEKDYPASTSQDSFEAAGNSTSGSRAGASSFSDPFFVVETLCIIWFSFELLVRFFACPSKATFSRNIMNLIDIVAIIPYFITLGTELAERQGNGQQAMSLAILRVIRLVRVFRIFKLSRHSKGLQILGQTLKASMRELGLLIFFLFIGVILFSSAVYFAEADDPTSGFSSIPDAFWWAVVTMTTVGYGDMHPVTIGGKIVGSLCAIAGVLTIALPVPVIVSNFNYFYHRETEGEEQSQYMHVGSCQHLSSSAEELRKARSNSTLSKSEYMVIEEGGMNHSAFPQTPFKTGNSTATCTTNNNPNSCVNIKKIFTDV

Compound	IC50 [1] [µM]	IC50 [2] [µM]
O=C([C@@H]1CCNC1)N1CC[C@]2(C1)C(=O)Nc1cc(Cl)c(Cl)cc12 [Compound 14, (S)-5,6-dichloro-1′-((R)-pyrrolidine-3-carbonyl)spiro[indoline-3,3′-pyrrolidin]-2-one]	< 0.3	> 100
O=C([C@H]1CCNC1)N1CC[C@]2(C1)C(=O)Nc1cc(Cl)c(Cl)cc12 [Compound 15, (S)-5,6-dichloro-1′-((S)-pyrrolidine-3-carbonyl)spiro[indoline-3,3′-pyrrolidin]-2-one]	< 1	> 100
O=C([C@@H]1CCCNC1)N1CC[C@]2(C1)C(=O)Nc1cc(Cl)c(Cl)cc12 [Compound 17, (S)-5,6-dichloro-1′-((R)-piperidine-3-carbonyl)spiro[indoline-3,3′-pyrrolidin]-2-one]	< 0.3	> 100
O=C(C1CCNCC1)N1CC[C@]2(C1)C(=O)Nc1cc(Cl)c(Cl)cc12 [Compound 21, (S)-5,6-dichloro-1′-(piperidine-4-carbonyl)spiro[indoline-3,3′-pyrrolidin]-2-one]	< 1	> 100
O=C(c1cn[nH]c1)N1CC[C@]2(C1)C(=O)Nc1cc(Cl)c(Cl)cc12 [Compound 35, (S)-5,6-dichloro-1′-(1H-pyrazole-4-carbonyl)spiro[indoline-3,3′-pyrrolidin]-2-one]	< 1	> 100
Nc1cc(C(=O)N2CC[C@]3(C2)C(=O)Nc2cc(Cl)c(Cl)cc23)ccn1 [Compound 42, (S)-1′-(2-aminoisonicotinoyl)-5,6-dichlorospiro[indoline-3,3′-pyrrolidin]-2-one]	< 0.3	> 10
O=C(N1CC[C@]2(C1)C(=O)Nc1cc(Cl)c(Cl)cc12)[C@]1(F)CCCNC1 [Compound 49, (S)-5,6-dichloro-1′-((S)-3-fluoropiperidine-3-carbonyl)spiro[indoline-3,3′-pyrrolidin]-2-one]	< 0.3	> 3
O=C1Nc2cc(Cl)c(Cl)cc2[C@]12CCN(C(=O)[C@H]1CC[C@H](O)CC1)C2 [Compound 52, (S)-5,6-dichloro-1′-((1r,4S)-4-hydroxycyclohexane-1-carbonyl)Spiro[indoline-3,3′-pyrrolidin]-2-one]	< 1	> 30
O=C(c1cc[nH]n1)N1CC[C@]2(C1)C(=O)Nc1cc(Cl)c(Cl)cc12 [Compound 53, (S)-5,6-dichloro-1′-(1H-pyrazole-3-carbonyl)spiro[indoline-3,3′-pyrrolidin]-2-one]	< 3	> 10
O=C(CCCO)N1CC[C@]2(C1)C(=O)Nc1cc(Cl)c(Cl)cc12 [Compound 56, (S)-5,6-dichloro-1′-(4-hydroxybutanoyl)spiro[indoline-3,3′-pyrrolidin]-2-one]	< 3	> 100
O=C(C[C@@H]1CCNC1)N1CC[C@]2(C1)C(=O)Nc1cc(Cl)c(Cl)cc12 [Compound 60, (S)-5,6-dichloro-1′-(2-((S)-pyrrolidin-3-yl)acetyl)spiro[indoline-3,3′-pyrrolidin]-2-one]	< 0.3	> 100
O=C(C[C@H]1CCNC1)N1CC[C@]2(C1)C(=O)Nc1cc(Cl)c(Cl)cc12 [Compound 62, (S)-5,6-dichloro-1′-(2-((R)-pyrrolidin-3-yl)acetyl)spiro[indoline-3,3′-pyrrolidin]-2-one]	< 0.3	> 100
O=C(c1ccnc(CO)c1)N1CC[C@]2(C1)C(=O)Nc1cc(Cl)c(Cl)cc12 [Compound 67, (S)-5,6-dichloro-1′-(2-(hydroxymethyl)isonicotinoyl)spiro[indoline-3,3′-pyrrolidin]-2-one]	< 1	> 100
Cc1[nH]ncc1C(=O)N1CC[C@]2(C1)C(=O)Nc1cc(Cl)c(Cl)cc12 [Compound 71, (S)-5,6-dichloro-1′-(5-methyl-1H-pyrazol-4-carbonyl)spiro[indoline-3,3′-pyrrolidin]-2-one]	< 1	> 30
O=C1Nc2cc(Cl)c(Cl)cc2[C@]12CCN(C(=O)[C@H]1C[C@](O)(CO)C1)C2 [Compound 93, (3S)-5,6-dichloro-1′-[(1r,3r)-3-hydroxy-3-(hydroxymethyl)cyclobutanecarbonyl]-1H-spiro[indole-3,3′-pyrrolidin]-2-one]	< 1	> 100
O=C1Nc2cc(Cl)c(Cl)cc2[C@]12CCN(C(=O)[C@H]1C[C@@](O)(CO)C1)C2 [Compound 94, (3S)-5,6-dichloro-1′-[(1s,3s)-3-hydroxy-3-(hydroxymethyl)cyclobutanecarbonyl]-1H-spiro[indole-3,3′-pyrrolidin]-2-one]	< 1	> 100
O=C([C@@H]1C[C@@H](O)[C@@H](O)C1)N1CC[C@]2(C1)C(=O)Nc1cc(Cl)c(Cl)cc12 [Compound 101, (3S)-5,6-dichloro-1′-[(1S,3R,4S)-3,4-dihydroxycyclopentanecarbonyl]-1H-spiro[indole-3,3′-pyrrolidin]-2-one]	< 0.3	> 100
O=C([C@H]1C[C@@H](O)[C@@H](O)C1)N1CC[C@]2(C1)C(=O)Nc1cc(Cl)c(Cl)cc12 [Compound 102, (3S)-5,6-dichloro-1′-[(1R,3R,43)-3,4-dihydroxycyclopentanecarbonyl]-1H-spiro[indole-3,3′-pyrrolidin]-2-one]	< 1	> 100
COC[C@@H]1C[C@H](C(=O)N2CC[C@]3(C2)C(=O)Nc2cc(Cl)c(Cl)cc23)CN1 [Compound 109, (3S)-5,6-dichloro-1′-[(3S,5S)-5-(methoxymethyl)pyrrolidine-3-carbonyl]-1H-spiro[indole-3,3′-pyrrolidin]-2-one]	< 1	> 30
COC[C@H]1C[C@H](C(=O)N2CC[C@]3(C2)C(=O)Nc2cc(Cl)c(Cl)cc23)CN1 [Compound 112, (S)-5,6-dichloro-1′-((3S,5R)-5-(methoxymethyl)pyrrolidine-3-carbonyl)spiro[indoline-3,3′-pyrrolidin]-2-one]	< 0.3	> 100
O=C([C@@H]1CN[C@H](CO)C1)N1CC[C@]2(C1)C(=O)Nc1cc(Cl)c(Cl)cc12 [Compound 113, (3S)-5,6-dichloro-1-[(3S,53)-5-(hydroxymethyl)pyrrolidine-3-carbonyl]-1H-spiro[indole-3,3-pyrrolidin]-2-one]	< 0.1	> 100
O=C([C@H]1CN[C@H](CO)C1)N1CC[C@]2(C1)C(=O)Nc1cc(Cl)c(Cl)cc12 [Compound 114, (3S)-5,6-dichloro-1′-[(3R,5S)-5-(hydroxymethyl)pyrrolidine-3-carbonyl]-1H-spiro[indole-3,3′-pyrrolidin]-2-one]	< 0.3	> 100
O=C([C@@H]1CN[C@@H](CO)C1)N1CC[C@]2(C1)C(=O)Nc1cc(Cl)c(Cl)cc12 [Compound 115, (S)-5,6-dichloro-1′-((3S,5R)-5-(hydroxymethyl)pyrrolidine-3-carbonyl)spiro[indoline-3,3′-pyrrolidin]-2-one]	< 0.1	> 100
O=C([C@H]1CN[C@@H](CO)C1)N1CC[C@]2(C1)C(=O)Nc1cc(Cl)c(Cl)cc12 [Compound 116, (S)-5,6-dichloro-1′-((3R,5R)-5-(hydroxymethyl)pyrrolidine-3-carbonyl)spiro[indoline-3,3′-pyrrolidin]-2-one]	< 0.1	> 100
Cc1cc2c(cc1Cl)[C@]1(CCN(C(=O)CO)C1)C(=O)N2 [Compound 120, (S)-5-chloro-1′-(2-hydroxyacetyl)-6-methylspiro[indoline-3,3′-pyrrolidin]-2-one]	< 3	> 100
O=C(CO)N1CC[C@]2(C1)C(=O)Nc1c2cc(Cl)c(Cl)c1Cl [Compound 121, (3S)-5,6,7-trichloro-1′-(2-hydroxyacetyl)-1H-spiro[indole-3,3′-pyrrolidin]-2-one]	< 0.3	> 10
O=C(CO)N1CC[C@]2(C1)C(=O)Nc1c2cc(Cl)c(Cl)c1F [Compound 128, (S)-5,6-dichloro-7-fluoro-1′-(2-hydroxyacetyl)spiro[indoline-3,3′-pyrrolidin]-2-one]	< 0.3	> 100
